Key:
[1] = method code SF, from DOI: 10.1002/ps.2780290303; settings: pH 5.0
[2] = method code SF-AS, from PMID: 578762; settings: pH 7.4
[3] = method code SF-RC, from DOI: 10.1111/j.1399-3054.1990.tb08712.x
[4] = method code SF, from DOI: 10.1021/jm00151a007, PMID: 3941412; settings: pH 9.0
[5] = method code SF-GLC, from Hashimoto, S.; Schneider, S.; Yamamoto, T.; Morita, M. (1994). Aqueous solubility and octanol-water partition coefficient of 3,3',4,4'-tetrachloroazobenzene. 20, 125-128.
[6] = method code SF, from DOI: 10.1021/jf60167a006
[7] = not given; remark: listed apart in the source
[8] = method code SF, from DOI: 10.1016/0223-5234(94)90060-4; settings: pH 7.4
[9] = method code G-GLC, from DOI: 10.1021/es00171a006
[10] = method code SF-RC, from DOI: 10.1016/j.nucmedbio.2008.01.001, PMID: 18355684; settings: pH 7.4
[11] = method code SF-F, from DOI: 10.1021/js950367f, PMID: 8901074
[12] = from Gehmann, K., Nyfeler, R., Leadbeater, A. J., Nevill, D. J., & Sozzi, D. (1990). CGA 173506: A new phenylpyrrole fungicide for broad-spectrum disease control. In Brighton Crop Protection Conference, …
[13] = method code SF-AS, from DOI: 10.1111/j.2042-7158.1988.tb06996.x, PMID: 2907534; settings: pH 7.0
[14] = not given; remark: listed apart in the source
[15] = not given; remark: listed apart in the source
[16] = method code SF-GLC, from DOI: 10.1016/s0380-1330(82)71969-0
[17] = method code SF, from DOI: 10.1016/0304-4165(80)90351-7, PMID: 6243999; settings: pH 7.4
[18] = not given; remark: listed apart in the source
[19] = not given; remark: listed apart in the source
[20] = method code SF-HPLC, from DOI: 10.1002/ps.2780440103; settings: pH 2.0
[21] = not given; remark: listed apart in the source
[22] = pH 9.2
[23] = method code SF-AS, from DOI: 10.1016/0014-5793(79)80862-5, PMID: 478007
[24] = method code SF-HPLC, from DOI: 10.3109/03639045.2012.690417, PMID: 22670797
[25] = not given; remark: listed apart in the source
[26] = method code SF-AS, from PMID: 7646571; settings: pH 7.0
[27] = from Tomlinson, E.; Davis, S.; Parr, G.; James, M.; Farraj, N.; Kinkel, J.; Gaisser, D.; Wynne, H. (1986). The filter-probe extractor: a versatile tool for the rapid determination of solute oil/water …
[28] = not given; remark: listed apart in the source
[29] = method code SF-AS, from DOI: 10.1016/j.ejmech.2007.07.011, PMID: 17869385; settings: pH 7.4
[30] = method code SF-HPLC, from DOI: 10.1016/0378-5173(95)00102-o
[31] = method code SF, from PMID: 7412765; settings: pH 7.0
[32] = not given; remark: listed apart in the source
[33] = not given; remark: listed apart in the source
[34] = not given; remark: listed apart in the source
[35] = method code SF, from DOI: 10.1016/s0223-5234(98)80007-x
[36] = method code SF-HPLC, from DOI: 10.1002/ps.2780170106; settings: pH 2.0
[37] = method code SF-RC, from DOI: 10.1021/jf60204a016
[38] = not given; remark: listed apart in the source
[39] = method code SF-HPLC, from DOI: 10.1016/j.ejmech.2008.06.022, PMID: 18687506; settings: pH 7.4
[40] = method code SF-AS, from PMID: 582409; settings: pH 7.4
[41] = method code SF-RC, from DOI: 10.1016/j.bmc.2005.04.014, PMID: 15911305; settings: pH 7.4
[42] = method code SF-AS, from DOI: 10.1016/0891-5849(92)90146-8, PMID: 1334029; settings: pH 2.0
[43] = method code SF-AS, from PMID: 1042; settings: pH 7.4
[44] = not given; remark: listed apart in the source
[45] = method code SF-AS, from DOI: 10.5012/bkcs.2007.28.7.1183
[46] = not given; remark: listed apart in the source
[47] = not given; remark: listed apart in the source
[48] = not given; remark: listed apart in the source
[49] = not given; remark: listed apart in the source
[50] = not given; remark: listed apart in the source

In the case of Cc1cccc2cccc(C)c12, the logP is reported as 4.26.

Work on COC(=O)c1sccc1S(=O)(=O)NC(=O)Nc1nc(OC)nc(OC)n1 yielded a logD [1] of 0.52.

Compound CCOC(=O)/C=C1\SC(N2CCCC2)C(=O)N1C (stereo unspecified) has a logD [2] of 2.

With O=C(O)Cc1cccc2ccccc12 the logP [3] was 2.24.

In the case of CNc1c(NCCSCc2nc[nH]c2C)c(=O)c1=O, the logD [4] is reported as -0.08.

Compound Clc1ccc(/N=N/c2ccc(Cl)c(Cl)c2)cc1Cl has a logP [5] of 5.53.

For CCOP(=O)(OCC)Oc1ccc(S(C)(=O)=O)cc1, the logP [6] was 0.

CC1(C)NC(=O)N(c2ccc([N+](=O)[O-])c(C(F)(F)F)c2)C1=O showed a logP [7] of 2.31.

CC(=O)Nc1ccn(C2CSC(COC(C)=O)O2)c(=O)n1 (stereo unspecified) showed a logD [8] of 0.88.

Clc1c(Cl)c(Cl)c2c(oc3c(Cl)c(Cl)c(Cl)c(Cl)c32)c1Cl showed a logP [9] of 7.59.

Work on CCCSc1nsnc1C1=CCCN(C)C1 yielded a logD [10] of 2.9.

COc1c2ccoc2cc2oc(=O)ccc12 gave a logP [11] of 2.

With N#Cc1c[nH]cc1-c1cccc2c1OC(F)(F)O2 the logP [12] was 2.6.

In the case of CCC1(c2ccccc2)C(=O)NC(=O)NC1=O, the logD [13] is reported as 1.32.

In the case of CC[C@@H]1C(=O)OC[C@@H]1Cc1cncn1C, the logP [14] is reported as 0.66.

CCC(N)C(=O)Nc1c(C)cccc1C (stereo unspecified) showed a logP [15] of 0.84.

In the case of Clc1cc(-c2ccccc2)c(Cl)c(Cl)c1Cl, the logP [16] is reported as 5.9.

With CC(=O)NC1CC(C)(C)N(O)C(C)(C)C1 the logD [17] was 0.52.

In the case of COc1ccc(Cc2cnc(N)nc2N)cc1Cl, the logP [18] is reported as 1.65.

In the case of O=[N+]([O-])c1nccn1CC(O)COc1ccccc1 (stereo unspecified), the logP [19] is reported as 1.4.

O=C(O)[C@H]1O[C@@H](Oc2ccc([N+](=O)[O-])cc2)[C@H](O)[C@@H](O)[C@@H]1O showed a logD [20] of -0.75.

CN1C(=O)NC(=O)C(C)(C2=CCCCC2)C1=O (stereo unspecified) gave a logP [21] of 1.71.

For CC(C)CNCNC(=O)c1ccccc1, the logD [22] was 1.73.

C#CC(C)N(C)C(=O)Nc1ccc(Cl)cc1 (stereo unspecified) showed a logP [23] of 3.

CC(C)(C)c1ccc(NC(N)=S)cc1 gave a logP [24] of 2.6.

Compound O=C(O)CCCn1c(=O)oc2ccccc2c1=O has a logP [25] of 0.2.

With Cn1c(=O)[nH]c2ncn(CC(C)(C)C)c2c1=O the logD [26] was 0.6.

Work on CNC(=O)[C@H](Cc1ccccc1)NC(C)=O yielded a logP [27] of 0.5.

With CCc1cccc2ccccc12 the logP [28] was 4.38.

Cc1c(O)c(=O)ccn1CCCn1ccnc1 gave a logD [29] of -0.46.

For CCCCCCOC(=O)c1cccnc1, the logP [30] was 3.51.

Compound CCCC(C)C1(CC)C(=O)NC(=O)NC1=O (stereo unspecified) has a logD [31] of 1.75.

With c1nnnn1C12CC3CC(CC(C3)C1)C2 the logP [32] was 2.95.

Compound CCCCCOc1ccc(O)cc1 has a logP [33] of 3.26.

Work on Clc1cc(Cl)c(-c2cc(Cl)c(Cl)cc2Cl)cc1Cl yielded a logP [34] of 6.67.

In the case of Cc1nc2n(c1C)CNc1ccccc1-2, the logP [35] is reported as 2.07.

With O=C(O)COc1cccc2ccccc12 the logD [36] was 2.6.

Work on CC(C)c1onc2nc(C(C)(C)C)[nH]c(=O)c12 yielded a logP [37] of 2.34.

Work on CNC(=O)OCc1nc(SC)n(C)c1COC(=O)NC yielded a logP [38] of 0.74.

Work on CC(=O)NCC(=O)NN=Nc1ccc(C#N)cc1 yielded a logD [39] of 1.1.

Compound Nc1nc(N)c2nc(-c3ccc(O)cc3)c(N)nc2n1 has a logD [40] of 0.92.

With Nc1nc(OCc2cccc(I)c2)c2nc[nH]c2n1 the logD [41] was 2.2.

For CC(=O)C(=Cc1cc(O)c(O)c([N+](=O)[O-])c1)C(C)=O, the logD [42] was 1.21.

CCCCOc1ccc(CC(=O)NO)cc1 showed a logD [43] of 2.08.

CCC(O)(CCC(N)=O)c1ccccc1 (stereo unspecified) showed a logP [44] of 2.11.

Work on Cc1cc(C)nc(NS(=O)(=O)c2ccc(N)cc2)n1 yielded a logP [45] of 0.21.

CCNc1nc(NC(C)C(C)C)nc(SC)n1 (stereo unspecified) showed a logP [46] of 3.76.

Compound Nc1nc(N)c2nc(-c3ccccc3)c(N)nc2n1 has a logP [47] of 1.24.

Compound Clc1cc2c(oc3c(Cl)c(Cl)c(Cl)cc32)c(Cl)c1Cl has a logP [48] of 6.6.

CC1=C(C)C(O)N(c2ccccc2)C1=O (stereo unspecified) showed a logP [49] of 1.63.

With CCCCCOC(=O)c1ccc(O)cc1 the logP [50] was 3.65.
